Data as given in patent US20080167532A1, “ASSESSING CANCER TREATMENT RESPONSIVENESS” (Mayo Foundation for Medical Education and Research, priority 2006, published 2008).
“Also recorded” adds a separate entry of the source.

Key:
[1] = system: DRO and ARO tumor tissues; experiment: Western blot of DRO and ARO tumor tissues from athymic nude mice; assay type: in vivo
Protocol: RhoB and p21^WAF1/CIP1 polypeptide expression also was examined in DRO and ARO tumor tissues removed from athymic nude mice following 35 days of treatment with vehicle control (−) or 0.025% RS5444 in the diet. Beta-actin was used as a normalization control to ensure even loading of total polypeptide in all lanes.
Suspensions of 1×10^6/0.1 mL DRO or ARO cells in RPMI medium were injected subcutaneously in one flank of 3 to 4 week old athymic female nude mice. Mice were changed to specialized diets 1 week after tumor implantation and randomly assigned to diets consisting of either 0.025% RS5444 or sham control (Research Diets). Mice weighed between 20-25 grams and consumed on average 4 grams of food per day (1 mg/day of RS5444). Tumors were measured every 3 to 4 days for 35 days with calipers and tumor volumes were calculated by the formula: 0.5236(a×b×c), where a is the shortest diameter, b is the diameter perpendicular to a, and c is the diameter height.
Cells were collected and lysed in RIPA buffer containing 50 mM Tris, 5 mM EDTA, 150 mM NaCl, 0.1% SDS, 0.5% Deoxycholate, 1% NP40, and protease inhibitor cocktail (Roche) followed by centrifugation. Excised tumor tissues were lysed in 50 mM Tris pH 8.0+1% SDS. Collected supernatants were, analyzed for protein concentration using Pierce's BCA assay, with 25 μg protein loaded per gel lane (Invitrogen) with later transfer to Immobilon-P membranes. The membranes were hybridized with antibodies (Santa Cruz, Cell Signaling, Sigma-Aldrich, St. Louis Mo.) as indicated overnight at 4° C. followed by treatment with species-specific horseradish peroxidase IgG (Jackson labs) for 45 minutes at room temperature. Detection was performed using Supersignal West Pico chemoluminescence kit (Pierce). Quantification of bands was performed in triplicate using Image Quant 5.2 (Molecular Dynamics, Sunnyvale Calif.).

PPARγ = biological target: T1, PPARγ (Homo sapiens, UniProt P37231); experiment: PPRE3-tk-luc reporter (dual luciferase) assay in DRO cells; assay type: cell-based; set-up: endogenous in cells; host or cells: DRO90-1 (DRO) human anaplastic thyroid carcinoma cells; details: DRO cells, PPRE3-tk-luc reporter, 24 hours; read-out: EC50, concentration at which 50% maximal transcriptional response occurs
T1 sequence (P37231 1-505): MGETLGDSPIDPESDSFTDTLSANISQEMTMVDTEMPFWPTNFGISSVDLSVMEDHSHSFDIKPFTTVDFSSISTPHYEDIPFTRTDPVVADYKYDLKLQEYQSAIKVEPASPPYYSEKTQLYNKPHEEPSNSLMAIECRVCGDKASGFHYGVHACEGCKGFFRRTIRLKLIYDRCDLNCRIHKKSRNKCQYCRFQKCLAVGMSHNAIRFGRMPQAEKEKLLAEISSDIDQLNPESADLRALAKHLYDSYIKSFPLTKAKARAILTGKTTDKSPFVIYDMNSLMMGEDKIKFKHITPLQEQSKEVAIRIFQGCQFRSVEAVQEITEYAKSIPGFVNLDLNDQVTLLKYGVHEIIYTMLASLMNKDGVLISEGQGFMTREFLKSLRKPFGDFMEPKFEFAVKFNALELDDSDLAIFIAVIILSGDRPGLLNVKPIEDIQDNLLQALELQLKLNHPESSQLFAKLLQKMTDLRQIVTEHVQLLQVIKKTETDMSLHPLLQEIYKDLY
Protocol: The effects of PPARγ agonists on DRO cells were investigated. […] Firefly luciferase activity was normalized to renilla […] activity (RLU) and plotted as mean values ±S.D. (FIG. 3A).
Cells were transfected with siRNA for 72 hours followed by transfected with a PPRE3-tk-luc reporter and treatment with 10 nM RS5444 for 24 hours. […] Cotransfection with renilla luciferase allowed for normalization to relative light units (RLU).
Cells were plated in 6-well culture plates at initial concentrations of 2×10^5 cells/well. After overnight incubation, cells were transfected with PPRE/luc and CMV/renilla luciferase plasmid using Lipofectamine 2000 (Invitrogen), and after 24 hours, cells were treated with PPAR-γ agonists at indicated concentrations. After 24 hours of drug treatments, cells were washed with PBS and lysed in 1× reporter lysis buffer (Roche), and luciferase activity was measured with a Dual Luciferase assay kit (Promega, Madison Wis.) with a luminometer (Veritas/Turner Biosystems). The enzyme activity was normalized for efficiency of transfection on the basis of renilla activity levels and reported as relative light units (RLU).

DRO cells = experiment: Real-time PCR of RhoB and p21 RNA in DRO cells; assay type: cell-based, human; details: 10 nM vs DMSO, time course
Protocol: Experiments also were conducted to examine the expression of RhoB in response to treatment with a PPARγ agonist. Cells from the human ATC cell line, DRO, were treated at various time points during 48 hours with DMSO control (0.1%) or 10 nM RS5444. RhoB and p21^WAF1/CIP1 RNA levels were measured using real-time PCR. Data were normalized to DMSO untreated controls for each time point measured.
Total mRNA was isolated from cells using RNAqueous (Ambion) per the manufacturer's protocol followed by ethanol precipitation. Total RNA from normal thyroid tissue was extracted using TOTALLY RNA (Ambion) according to manufacturer's protocol followed by Chroma Spin Column 100 (BD Bioscience). Two-step quantitative reverse transcriptase-mediated real-time PCR (QPCR) was used to measure changes in mRNA levels of target genes in ATC cells. Total RNA was reverse transcribed using the High-Capacity cDNA Archive kit (Applied Biosystems) per the manufacturer's instructions. […] Forty amplification cycles were performed on the Applied Biosystems Prism 7900 sequence detector, with cycle threshold (Ct) values calculated using the Sequence Detection System software (SDS 2.2.2. Applied Biosystems) normalized against 18S rRNA levels. Fold change values either between treated (RS5444) and control samples were calculated using the ΔΔCt method (Livak and Schmittgen, Methods, 25:402-408 (2001)).

[2] = DRO and ARO tumors, 0.025% in diet for 35 days

Structure (SMILES): Cc1cc(Oc2ccc3nc(COc4ccc(CC5SC(=O)NC5=O)cc4)n(C)c3c2)cc(C)c1N (stereo not drawn) [RS5444]
- RhoB polypeptide in tumors (Western blot) ([1]; ATC tumors from mice, 4 weeks of 0.025% in diet): elevated
- RhoB polypeptide expression in tumors [1, 2]: elevated
- cyclin E levels in tumors [1, 2]: down-regulated
- p21WAF1/CIP1 polypeptide expression in tumors [1, 2]: elevated
- EC50 (PPARγ): ~1 nM
- RhoB mRNA levels (real-time PCR) (DRO cells): RhoB mRNA induction as early as 2 hours; also recorded: significantly elevated at 12 hours through 48 hours
